Literature values as cited in patent publication US10377741B2, “Substituted heteroaryl aldehyde compounds and methods for their use in increasing tissue oxygenation” (Global Blood Therapeutics, Inc., priority 2011, dated 2019).

Tests used:
hemoglobin = hemoglobin (Homo sapiens, UniProt P68871+P69905); conditions: in vitro and in vivo; cited from earlier work
human HbS = conditions: transgenic mice producing human HbS, cited from earlier work

hemoglobin, sequence (P69905 2-142 limits assumed): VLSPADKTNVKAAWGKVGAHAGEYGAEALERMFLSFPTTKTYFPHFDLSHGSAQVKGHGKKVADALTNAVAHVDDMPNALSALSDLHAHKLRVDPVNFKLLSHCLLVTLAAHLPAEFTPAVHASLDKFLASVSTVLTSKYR
hemoglobin, sequence (P68871 2-147 limits assumed): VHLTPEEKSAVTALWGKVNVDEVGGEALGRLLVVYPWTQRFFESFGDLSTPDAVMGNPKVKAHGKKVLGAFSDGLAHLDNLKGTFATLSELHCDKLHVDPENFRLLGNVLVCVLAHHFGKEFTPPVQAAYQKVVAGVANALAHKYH

In the case of `O=Cc1ccc(CO)o1` [Compound 5HMF, 5-hydroxymethyl-2-furfuraldehyde], the hemoglobin modulator activity (hemoglobin) is given as “potent hemoglobin modulator both in vitro and in vivo”, the survival times (human HbS; extreme hypoxia (5% oxygen)) is given as “significantly improved survival times” and the “hypoxia-induced sickled red blood cells” value (human HbS; hypoxic conditions, compared to the non-treated mice) is given as “reduced amounts of hypoxia-induced sickled red blood cells”.
